Article PMC6979384, “Characterization of the plant homeodomain (PHD) reader family for their histone tail interactions” (Epigenetics & Chromatin, 2020)

How the values were obtained:
Test in all cases: Histone peptide microarray
Assay type in all cases: binding, human
PHF2 = details: sheet "Array Heatmap"; GST-tagged PHF2; arrays performed twice, total replicate number n = 4
In short: (§1)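 GST-tagged PHD readers, 0.5 μM, probed on a microarray of 293 synthetic histone peptides carrying single or combinatorial PTMs (optimized Petell protocol). Signals are averaged over 4 replicates and expressed as relative binding.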

TAF3 = details: sheet "Array Heatmap"; GST-tagged TAF3; arrays performed twice, total replicate number n = 4
In short: as §1

DPF2 (PPC2W2) = details: sheet "Array Heatmap"; GST-tagged DPF2 (PPC2W2); arrays performed twice, total replicate number n = 4
In short: as §1

PHF13 = details: sheet "Array Heatmap"; GST-tagged PHF13; arrays performed twice, total replicate number n = 4
In short: as §1

CHD4 (PPCC) = details: sheet "Array Heatmap"; GST-tagged CHD4 (PPCC); arrays performed twice, total replicate number n = 4
In short: as §1

SP140L = details: sheet "Array Heatmap"; GST-tagged SP140L; arrays performed twice, total replicate number n = 4
In short: as §1

KDM5B (1) = details: sheet "Array Heatmap"; GST-tagged KDM5B (1); arrays performed twice, total replicate number n = 4
In short: as §1

DIDO1 = details: sheet "Array Heatmap"; GST-tagged DIDO1; arrays performed twice, total replicate number n = 4
In short: as §1

KDM7A = details: sheet "Array Heatmap"; GST-tagged KDM7A; arrays performed twice, total replicate number n = 4
In short: as §1

CHD5 (PCC) = details: sheet "Array Heatmap"; GST-tagged CHD5 (PCC); arrays performed twice, total replicate number n = 4
In short: as §1

KDM5A (3) = details: sheet "Array Heatmap"; GST-tagged KDM5A (3); arrays performed twice, total replicate number n = 4
In short: as §1

PHF23 = details: sheet "Array Heatmap"; GST-tagged PHF23; arrays performed twice, total replicate number n = 4
In short: as §1

PHF21A = details: sheet "Array Heatmap"; GST-tagged PHF21A; arrays performed twice, total replicate number n = 4
In short: as §1

BPTF (PB) = details: sheet "Array Heatmap"; GST-tagged BPTF (PB); arrays performed twice, total replicate number n = 4
In short: as §1

MLL5 = details: sheet "Array Heatmap"; GST-tagged MLL5; arrays performed twice, total replicate number n = 4
In short: as §1

AIRE (PP) = details: sheet "Array Heatmap"; GST-tagged AIRE (PP); arrays performed twice, total replicate number n = 4
In short: as §1

TRIM66 (PB) = details: sheet "Array Heatmap"; GST-tagged TRIM66 (PB); arrays performed twice, total replicate number n = 4
In short: as §1

PHF8 = details: sheet "Array Heatmap"; GST-tagged PHF8; arrays performed twice, total replicate number n = 4
In short: as §1

ING5 = details: sheet "Array Heatmap"; GST-tagged ING5; arrays performed twice, total replicate number n = 4
In short: as §1

KDM5A (1) = details: sheet "Array Heatmap"; GST-tagged KDM5A (1); arrays performed twice, total replicate number n = 4
In short: as §1

BAZ2B = details: sheet "Array Heatmap"; GST-tagged BAZ2B; arrays performed twice, total replicate number n = 4
In short: as §1

ING2 = details: sheet "Array Heatmap"; GST-tagged ING2; arrays performed twice, total replicate number n = 4
In short: as §1

ING1 = details: sheet "Array Heatmap"; GST-tagged ING1; arrays performed twice, total replicate number n = 4
In short: as §1

MORC3 (CW) = details: sheet "Array Heatmap"; GST-tagged MORC3 (CW); arrays performed twice, total replicate number n = 4
In short: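 Each reader, produced as a GST fusion and purified, was tested at 0.5 μM on synthetic histone peptides (293 in total) carrying single or combinatorial marks. Intensities averaged over four replicates.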

ING4 = details: sheet "Array Heatmap"; GST-tagged ING4; arrays performed twice, total replicate number n = 4
In short: as §1

PHRF1 (RP) = details: sheet "Array Heatmap"; GST-tagged PHRF1 (RP); arrays performed twice, total replicate number n = 4
In short: as §1

KDM5B (3) = details: sheet "Array Heatmap"; GST-tagged KDM5B (3); arrays performed twice, total replicate number n = 4
In short: as §1

KDM4C (TTP) = details: sheet "Array Heatmap"; GST-tagged KDM4C (TTP); arrays performed twice, total replicate number n = 4
In short: as §1

CHD5 (PPCC) = details: sheet "Array Heatmap"; GST-tagged CHD5 (PPCC); arrays performed twice, total replicate number n = 4
In short: as §1

RAG2 = details: sheet "Array Heatmap"; GST-tagged RAG2; arrays performed twice, total replicate number n = 4
In short: as §1

ING3 = details: sheet "Array Heatmap"; GST-tagged ING3; arrays performed twice, total replicate number n = 4
In short: as §1

Substance	Array Heatmap signal, PHF2 (PHF2)	Array Heatmap signal, TAF3 (TAF3)	Array Heatmap signal, DPF2 (PPC2W2) (DPF2 (PPC2W2))	Array Heatmap signal, PHF13 (PHF13)	Array Heatmap signal, CHD4 (PPCC) (CHD4 (PPCC))	Array Heatmap signal, SP140L (SP140L)	Array Heatmap signal, KDM5B (1) (KDM5B (1))	Array Heatmap signal, DIDO1 (DIDO1)	Array Heatmap signal, KDM7A (KDM7A)	Array Heatmap signal, CHD5 (PCC) (CHD5 (PCC))	Array Heatmap signal, KDM5A (3) (KDM5A (3))	Array Heatmap signal, PHF23 (PHF23)	Array Heatmap signal, PHF21A (PHF21A)	Array Heatmap signal, BPTF (PB) (BPTF (PB))	Array Heatmap signal, MLL5 (MLL5)	Array Heatmap signal, AIRE (PP) (AIRE (PP))	Array Heatmap signal, TRIM66 (PB) (TRIM66 (PB))	Array Heatmap signal, PHF8 (PHF8)	Array Heatmap signal, ING5 (ING5)	Array Heatmap signal, KDM5A (1) (KDM5A (1))	other results
H3.3 30-49: H3.3 30-49	0.404	0.2689	0.6135	0.586	0.5572	0.3561	0.6846	0.5964	0.4094	0.7506	0.3975	0.5238	0.447	0.3385	0.5124	0.4614	0.5248	0.3443	0.3551	0.4724	Array Heatmap signal, BAZ2B (BAZ2B): 0.4498; Array Heatmap signal, ING2 (ING2): 0.5868; Array Heatmap signal, ING1 (ING1): 0.4817; Array Heatmap signal, MORC3 (CW) (MORC3 (CW)): 0.3401; Array Heatmap signal, ING4 (ING4): 0.4627; Array Heatmap signal, PHRF1 (RP) (PHRF1 (RP)): 0.4134; Array Heatmap signal, KDM5B (3) (KDM5B (3)): 0.4643; Array Heatmap signal, KDM4C (TTP) (KDM4C (TTP)): 0.523; Array Heatmap signal, CHD5 (PPCC) (CHD5 (PPCC)): 0.5477; Array Heatmap signal, RAG2 (RAG2): 0.2343; Array Heatmap signal, ING3 (ING3): 0.4515
H3.3 75-94: H3.3 120-135	0.46	0.2603	0.6426	0.6071	0.5423	0.3784	0.6676	0.6416	0.3506	0.7355	0.454	0.5259	0.449	0.3448	0.5079	0.502	0.5407	0.3469	0.3621	0.468	Array Heatmap signal, BAZ2B (BAZ2B): 0.4527; Array Heatmap signal, ING2 (ING2): 0.5986; Array Heatmap signal, ING1 (ING1): 0.5031; Array Heatmap signal, MORC3 (CW) (MORC3 (CW)): 0.3704; Array Heatmap signal, ING4 (ING4): 0.4549; Array Heatmap signal, PHRF1 (RP) (PHRF1 (RP)): 0.4716; Array Heatmap signal, KDM5B (3) (KDM5B (3)): 0.4774; Array Heatmap signal, KDM4C (TTP) (KDM4C (TTP)): 0.5145; Array Heatmap signal, CHD5 (PPCC) (CHD5 (PPCC)): 0.563; Array Heatmap signal, RAG2 (RAG2): 0.2477; Array Heatmap signal, ING3 (ING3): 0.473
